Data reported in article PMC3164098, “C-Terminal Substitution of MDM2 Interacting Peptides Modulates Binding Affinity by Distinctive Mechanisms” (PLoS ONE, 2011).
Ends that are not written are not given here.

Assays:
[1] = target: T1, hexahistidine tagged MDM2 (18–125) (Homo sapiens, UniProt Q00987); assay: Isothermal titration calorimetry (ITC) of ligands against MDM2; type: binding; details: PBS pH 7.4, 0.05% TWEEN20, 1% DMSO; for Kd: 10 or 20 µM MDM2 in cell
T1 construct: DNA encoding residues Q18 to N125 of HDM2; made in house; host or cells: E. coli BL21(DE3)
Procedure: DNA encoding residues Q18 to N125 of HDM2 were cloned as a NdeI/BamHI fragment into pET19b (Novagen). Recombinant clones carrying the correct insert were identified by DNA sequencing. Plasmid from the identified clone was introduced into E. coli BL21(DE3) and protein production in LB medium was induced with IPTG (1 mM) when the cell density reached OD600 between 0.4 and 0.6. Induced cells were grown at room temperature for 5 h, harvested, and then resuspended in buffer A (50 mM Tris pH 8.0, 10% sucrose). After cell disruption and centrifugation, supernatant was loaded onto a Ni-nitrilotriacetic acid (NTA) column and washed with 5 column volumes of 0.3 M NaCl, 50 mM Tris-HCl pH 8.0, 1 mM DTT. […] The protein was further purified by cation-exchange chromatography (Pharmacia Mono S 5/5, 1 ml/min, 50 mM Tris-HCl pH 7.0, 1 mM DTT) with a 1 M NaCl gradient.
ITC experiments were conducted in a VP-ITC Unit (MicroCal, Northampton, MA). […] All titrations were carried out in 1% DMSO. […] All peptides used were weighed out as solids and dissolved in DMSO. The stock peptide solutions were diluted to their working concentrations in the buffer used for dialysis of the protein. DMSO was carefully added to the MDM2 solution in the VP-ITC cell to buffer match it to the peptide solution. The titration experiments were performed at 20°C with an initial 2 µl injection with duration of 4 s, followed by 28 10 µl injections with a duration of 7.1 s. The spacing between each injection was 150 s. The stirring speed during the titration was 290 rpm. Data was analyzed using Microcal Origin software by fitting to a single-site binding model. Correction for the enthalpy of ligand dilution was carried out by subtracting a linear fit from the last three data points of the titration, after the interaction had reached saturation.

[2] = tested on: N-terminal domain of MDM2; details: peptide of residues 12–30 of WT p53, binding to N-terminal domain of MDM2; ref 10 (Zondlo et al.); cited from earlier work
Description: The molecular interaction of the binding of the MDM2 N-terminal domain to the p53 N-terminus (TA domain) is well understood. Several high-resolution crystal and NMR structures in complex with a variety of peptides and small molecules have been elucidated, [8]. These structural studies indicate that the residues F19, W23 and L26 of the TA domain of p53 are critical for binding to MDM2. Indeed most peptides, peptidomimetics and small molecules that have been developed have indeed emerged as a result of mimicking these interactions. However, it has been known for some time that the other ...

[3] = 293 K (20°C), single-site binding model

T1 sequence (Q00987 18-125): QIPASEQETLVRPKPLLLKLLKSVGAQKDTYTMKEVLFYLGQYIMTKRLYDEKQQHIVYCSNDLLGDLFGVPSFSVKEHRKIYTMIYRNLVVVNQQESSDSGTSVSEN

Kd [1, 3] [nM] | Compound | further results
18.8 ± 5.03 | CSCC[C@H](NC(=O)[C@H](Cc1ccccc1)NC(=O)[C@H](CCCNC(=N)N)NC(=O)[C@@H]1CCCN1C(=O)[C@@H](N)CCSC)C(=O)N[C@@H](CC(=O)O)C(=O)N[C@@H](Cc1ccc(O)cc1)C(=O)N[C@@H](Cc1c[nH]c2ccccc12)C(=O)N[C@@H](CCC(=O)O)C(=O)NCC(=O)N[C@@H](CC(C)C)C(=O)N[C@@H](CO)C(N)=O [12/1Ser] | –
168 ± 9.24 | CC(C)C[C@H](NC(=O)[C@H](CC(C)C)NC(=O)[C@H](CCCCN)NC(=O)[C@H](Cc1c[nH]c2ccccc12)NC(=O)[C@H](CC(C)C)NC(=O)[C@H](CC(=O)O)NC(=O)[C@H](CO)NC(=O)[C@H](Cc1ccccc1)NC(=O)[C@@H](NC(=O)[C@H](CCC(=O)O)NC(=O)[C@@H](N)CCC(N)=O)[C@@H](C)O)C(=O)N[C@@H](CC(N)=O)C(N)=O [P53 Asn] | –
112 ± 17.9 | CC(C)C[C@H](NC(=O)[C@H](CC(C)C)NC(=O)[C@H](CCCCN)NC(=O)[C@H](Cc1c[nH]c2ccccc12)NC(=O)[C@H](CC(C)C)NC(=O)[C@H](CC(=O)O)NC(=O)[C@H](CO)NC(=O)[C@H](Cc1ccccc1)NC(=O)[C@@H](NC(=O)[C@H](CCC(=O)O)NC(=O)[C@@H](N)CCC(N)=O)[C@@H](C)O)C(=O)N[C@@H](C)C(N)=O [p53 Ala] | –
75.8 ± 10.4 | CC(C)C[C@H](NC(=O)[C@H](CC(C)C)NC(=O)[C@H](CCCCN)NC(=O)[C@H](Cc1c[nH]c2ccccc12)NC(=O)[C@H](CC(C)C)NC(=O)[C@H](CC(=O)O)NC(=O)[C@H](CO)NC(=O)[C@H](Cc1ccccc1)NC(=O)[C@@H](NC(=O)[C@H](CCC(=O)O)NC(=O)[C@@H](N)CCC(N)=O)[C@@H](C)O)C(=O)N[C@@H](CO)C(N)=O [p53 Ser] | –
38.8 ± 7.43 | CC(C)C[C@H](NC(=O)[C@H](CC(=O)O)NC(=O)[C@H](CO)NC(=O)[C@H](Cc1ccccc1)NC(=O)[C@@H](NC(=O)[C@H](CCC(=O)O)NC(=O)[C@@H](N)CCC(N)=O)[C@@H](C)O)C(=O)N[C@@H](Cc1c[nH]c2ccccc12)C(=O)N[C@@H](CCCCN)C(=O)N[C@@H](CC(C)C)C(=O)N[C@@H](CC(C)C)C(=O)N[C@H](C(N)=O)[C@@H](C)O [p53Thr] | –
47.2 ± 11.1 | MPRFMDYWEGLA-NH2 [12/1Ala] | –
240 ± 53.8 | MPRFMDYWEGLN-NH2 [12/1] | –
213 ± 36.6 | MPRFMDYWEGLP-NH2 [12/1Pro] | –
22.9 ± 4.21 | MPRFMDYWEGLT-NH2 [12/1Thr] | –
– | Nutlin [Nutlin Racemic, reference compound] | ΔG ([1]; binding free energy calculated from the Kd using ΔG = −RTlnKa, 293 K): -8.97 ± 0.15 kcal/mol; ΔH ([1]; enthalpy of binding, 293 K (20°C), single-site binding model): -6.10 ± 0.16 kcal/mol; TΔS ([1]; entropy of binding, 293 K (20°C)): 2.88 kcal/mol
– | P27S: P27S substitution in a peptide corresponding to residues 12–30 of the WT p53 sequence (Zondlo et al.) (PPLSQETFSDLWKLLSENN; not fully specified (C-terminus); UniProt P04637 12-30, looked up, variant P27S) | fold improvement in Kd over the wild type sequence [2]: ~200 fold
